PubChem BioAssay AID588656 (The Scripps Research Institute Molecular Screening Center, 2011)

Tests used:
[1] = test system: HT29 cells, ERK1/2 western blot, 24 h; assay: total ERK1/2 protein level change, either direction, late-stage follow-up, counter-screen for KLF5 inhibitor project, HT29 cells, chemiluminescent western blot, powder samples (AID 588656); settings: measured here: ERK1/2 protein fold change vs DMSO; at 10 µM
[2] = biological target: Mitogen-activated protein kinase 1 (Homo sapiens) (UniProt P28482); assay: as above; settings: HT29 cells, ERK1/2 western blot, 24 h; at 10 µM; stronger effect = higher value
Mitogen-activated protein kinase 1 (Homo sapiens), sequence (P28482 whole entry, looked up): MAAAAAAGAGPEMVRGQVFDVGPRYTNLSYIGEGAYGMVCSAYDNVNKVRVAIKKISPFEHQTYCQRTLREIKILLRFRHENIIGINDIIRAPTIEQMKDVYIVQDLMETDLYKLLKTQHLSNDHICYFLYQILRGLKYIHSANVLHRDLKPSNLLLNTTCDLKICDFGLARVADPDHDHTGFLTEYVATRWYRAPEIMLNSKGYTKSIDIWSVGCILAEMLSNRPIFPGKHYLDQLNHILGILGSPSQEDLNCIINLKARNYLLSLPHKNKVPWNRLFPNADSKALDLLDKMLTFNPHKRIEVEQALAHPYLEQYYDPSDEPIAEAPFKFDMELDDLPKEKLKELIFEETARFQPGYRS

inhibition [2] [%] | Compound | fold change [1]
-46.4 | CN(C(=O)COC(=O)/C=C/c1cccc([N+](=O)[O-])c1)C1CCS(=O)(=O)C1 (stereo unspecified) | 1.46
-96.5 | CN(C(=O)CNC(=O)/C=C/c1cccc(Cl)c1)C1CCS(=O)(=O)CC1 | 1.97
-96.6 | CN(C(=O)CNC(=O)/C=C/c1cccc(Cl)c1)C1CCS(=O)(=O)C1 (stereo unspecified) | 1.97
